This note sets out measurements from patent EP4741383A1, “COMPOUND AND USE THEREOF AS ANTI-CANCER DRUG” (Tyligand Bioscience (Shanghai) Limited, priority 2023, dated 2025).

Each structure is given as a SMILES string.

The target in this data set is T1, CYP1A2 (Homo sapiens, UniProt P05177).
T1 construct: tissue Corning or Xenotech; host or cells: human liver microsomes
T1 sequence (P05177 1-516): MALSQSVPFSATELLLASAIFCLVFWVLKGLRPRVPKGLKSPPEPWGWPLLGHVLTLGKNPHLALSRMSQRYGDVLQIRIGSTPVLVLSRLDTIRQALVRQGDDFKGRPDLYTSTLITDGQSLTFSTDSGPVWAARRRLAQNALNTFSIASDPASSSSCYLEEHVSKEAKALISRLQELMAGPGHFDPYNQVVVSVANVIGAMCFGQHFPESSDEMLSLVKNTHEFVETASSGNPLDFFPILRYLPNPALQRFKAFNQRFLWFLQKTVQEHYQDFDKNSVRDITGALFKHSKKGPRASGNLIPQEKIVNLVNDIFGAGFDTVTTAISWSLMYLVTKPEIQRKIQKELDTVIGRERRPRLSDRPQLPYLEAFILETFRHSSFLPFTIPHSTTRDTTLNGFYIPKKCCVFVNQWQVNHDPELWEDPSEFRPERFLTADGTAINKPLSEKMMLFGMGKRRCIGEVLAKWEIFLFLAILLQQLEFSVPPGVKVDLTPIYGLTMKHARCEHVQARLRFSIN
The experiment in a line: CYP450 inhibition in human liver microsomes, CYP1A2. In kind it is in vitro ADME. To be noted: pH 7.4, read-out: % CYP inhibition @ 10 µM 1A2. The source says: According to standard methods in the field for the study of cytochrome P450 enzyme systems, such as the method described in Kerns, Edward H. and Di Li et al., Drug-like Properties: Concepts, Structure Design and Methods: from ADME to Toxicity Optimization (2008), San Diego, Academic Press, and Lin, Tong et al., In Vitro Assessment of Cytochrome P450 Inhibition: Strategies for Increasing LC/MS-Based Assay Throughput Using a One-Point IC50 Method and Multiplexing High-Performance Liquid Chromatography (J. Pharm. Sci. 2007, 96 (9), 2485). The inhibitory effect of the disclosed compounds on the cytochrome P450 enzyme system was similarly examined below.
Human liver microsomes were purchased from Corning or Xenotech. The test compounds were evaluated by detecting the metabolism of substrates for different Cyp450 isoforms by human liver microsomes.
0.1 M potassium phosphate buffer (K-buffer, pH 7.4) was pre-warmed.
100 mM K-buffer was prepared by mixing 9.5 mL of stock solution A (1 M potassium dihydrogen phosphate, prepared by dissolving 136.5 g of potassium dihydrogen phosphate in 1 L of Milli-Q water) with 40.5 mL of stock solution B (1 M potassium hydrogen phosphate, prepared by dissolving 174.2 g of potassium hydrogen phosphate in 1 L of Milli-Q water). The total volume was adjusted to 500 mL with Milli-Q water, and the buffer was titrated to pH 7.4 using KOH or H3PO4.
Test compound solution and specific inhibitor solution (400× dilution) were prepared in a 96-well plate. For the test compound, 8 µL of 10 mM test compound was transferred into 12 µL of ACN. For specific inhibitors of CYP1A2, CYP2C9, and CYP2D6: 12 µL of 1 mM α-naphthoflavone, 10 µL of 40 mM sulfaphenazole, 10 µL of 10 mM quinidine, and 8 µL of DMSO were mixed. For specific inhibitors of CYP3A4, CYP2B6, CYP2C8, and CYP2C19: 8 µL of DMSO stock solution was added to 12 µL of ACN.
A 4× diluted NADPH solution was prepared by dissolving 66.7 mg of NADPH in 10 mL of 0.1 M K-buffer (pH 7.4). […]
In general terms: Liver microsomes are vesicles of endoplasmic reticulum, rich in cytochrome P450 enzymes.
A word on the inhibition: it is the share of the control response that was lost under treatment. Regarding `O=C(Nc1ccc(-c2cc3cc(F)c(-c4nnn[nH]4)cc3n2C2CCC2)cc1)C(=O)Nc1ccc(N2CCC3(CCOC3)CC2)cc1` [Example 67], the inhibition at 10 min, 10 µM was found to be 9.47%.
With `CC1(n2c(-c3ccc(NC(=O)C(=O)Nc4ccc(N5CCC6(CCOC6)CC5)cc4)cc3)cc3cc(F)c(-c4nnn[nH]4)cc32)CCC1` [Example 68], the inhibition at 10 min, 10 µM worked out at 11.4%.
For the molecule `O=C(Nc1ccc(-c2cc3cc(F)c(-c4nnn[nH]4)cc3n2C2CCC2)cc1)C(=O)Nc1ccc(N2CCC(CO)CC2)cc1` [Example 23], the inhibition at 10 min, 10 µM is 17.1%.
